Measurements from patent publication US9815851B2, “Pyrrolo carboxamides as modulators of orphan nuclear receptor RAR-related orphan receptor-gamma (RORγ, NR1F3) activity and for the treatment of chronic inflammatory and autoimmune diseases” (PHENEX PHARMACEUTICALS AG, priority 2011, dated 2017).
Read-outs that look alike come from different tables or passages of the source.

Key:
[1] = target: T1, RORγ ligand binding domain (LBD) (Homo sapiens, UniProt P51449); assay: TR-FRET Activity Assay (ligand sensing, RORγ-LBD / coactivator peptide interaction, LANCE); format: biochemical
T1 construct: made in house; host or cells: E. coli BL-21 (BL3), vector pDEST15
T1 sequence (P51449 269-508 limits assumed): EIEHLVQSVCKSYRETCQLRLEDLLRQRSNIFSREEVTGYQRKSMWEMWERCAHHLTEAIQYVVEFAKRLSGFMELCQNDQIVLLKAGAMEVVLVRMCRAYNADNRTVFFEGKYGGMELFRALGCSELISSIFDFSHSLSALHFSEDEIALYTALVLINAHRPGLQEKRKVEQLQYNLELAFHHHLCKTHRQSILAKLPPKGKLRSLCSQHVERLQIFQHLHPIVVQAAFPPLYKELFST

[2] = target: T2, RORγ (UniProt P51449); assay: RORγ Gal4 Reporter Gene Assay in 293T cells (firefly and renilla luciferase); format: cell-based, human
T2 sequence (P51449 1-518): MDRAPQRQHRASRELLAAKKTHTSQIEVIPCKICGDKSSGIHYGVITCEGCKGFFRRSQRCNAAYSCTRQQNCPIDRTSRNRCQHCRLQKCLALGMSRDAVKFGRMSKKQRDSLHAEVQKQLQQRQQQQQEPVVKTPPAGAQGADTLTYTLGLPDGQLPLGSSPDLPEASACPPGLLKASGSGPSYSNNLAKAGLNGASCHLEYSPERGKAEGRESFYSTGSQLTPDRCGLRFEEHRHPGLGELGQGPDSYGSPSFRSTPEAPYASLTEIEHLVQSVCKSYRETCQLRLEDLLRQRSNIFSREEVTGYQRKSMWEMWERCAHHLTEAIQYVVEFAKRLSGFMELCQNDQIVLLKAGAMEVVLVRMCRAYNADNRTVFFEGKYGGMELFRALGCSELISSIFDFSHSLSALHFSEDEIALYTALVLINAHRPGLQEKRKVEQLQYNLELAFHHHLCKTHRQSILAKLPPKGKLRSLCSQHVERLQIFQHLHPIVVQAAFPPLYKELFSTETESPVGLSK

[3] = first value of the cell FRET/FF/REN, TR-FRET activity assay, read-out: pIC50 (FRET) (converted)
[4] = second value of the cell, Gal4 reporter gene assay in 293T cells, firefly luciferase
[5] = third value of the cell, Gal4 reporter gene assay in 293T cells, renilla normalised luciferase

Compound	IC50 [1, 3] [nM]	pIC50 (FF) [2, 4]	pIC50 (REN) [2, 5]	IC50 [1] [nM]	pIC50 (FF) [2]	pIC50 (REN) [2]
Cc1c(C(=O)NC2CC2)cc(-c2cc(C(C)(C)C)c3c(c2)C2(CCO3)CC2)n1CC1CCCCC1 [1/92]	200	7.0	6.9	–	–	–
Cc1c(C(=O)NC2CCOCC2)cc(-c2cc(C(C)(C)C)c3c(c2)C2(CCO3)CC2)n1CC1CCCCC1 [1/93]	200	7.4	7.4	–	–	–
Cc1c(C(=O)NCC2CCOCC2)cc(-c2cc(C(C)(C)C)c3c(c2)C2(CCO3)CC2)n1CC1CCCCC1 [1/94]	501	7.4	7.3	–	–	–
Cc1c(C(=O)N[C@H]2CCOC2)cc(-c2cc(C(C)(C)C)c3c(c2)C2(CCO3)CC2)n1CC1CCCCC1 [1/95]	158	7.0	7.1	–	–	–
Cc1c(C(=O)N[C@@H]2CCOC2)cc(-c2cc(C(C)(C)C)c3c(c2)C2(CCO3)CC2)n1CC1CCCCC1 [1/96]	200	6.7	6.8	–	–	–
COC(C)(C)CNC(=O)c1cc(-c2cc(C(C)(C)C)c3c(c2)C2(CCO3)CC2)n(CC2CCCCC2)c1C [1/97]	–	–	–	251	6.6/7.1/7.0	6.6/7.1/7.0
Cc1c(C(=O)NCC(C)(C)C(N)=O)cc(-c2cc(C(C)(C)C)c3c(c2)C2(CCO3)CC2)n1CC1CCCCC1 [1/98]	631	7.3	7.3	–	–	–
Cc1c(C(=O)NCC2(O)CCOCC2)cc(-c2cc(C(C)(C)C)c3c(c2)C2(CCO3)CC2)n1CC1CCCCC1 [1/99]	–	–	–	398	6.4/7.1/7.2	6.4/7.1/7.2
Cc1c(C(=O)NCC2COC2)cc(-c2cc(C(C)(C)C)c3c(c2)C2(CCO3)CC2)n1CC1CCCCC1 [1/100]	251	7.2	7.2	–	–	–
Cc1c(C(=O)NCC2(C)COC2)cc(-c2cc(C(C)(C)C)c3c(c2)C2(CCO3)CC2)n1CC1CCCCC1 [1/101]	251	7.2	7.2	–	–	–
Cc1c(C(=O)NCC2CC2)cc(-c2cc(C(C)(C)C)c3c(c2)C2(CCO3)CC2)n1CC1CCCCC1 [1/102]	501	6.4	6.4	–	–	–
Cc1c(C(=O)NCC(C)(C)NS(C)(=O)=O)cc(-c2cc(C(C)(C)C)c3c(c2)C2(CCO3)CC2)n1CC1CCCCC1 [1/103]	398	7.3	7.3	–	–	–
Cc1c(C(=O)NCCS(C)(=O)=O)cc(-c2cc(C(C)(C)C)c3c(c2)C2(CCO3)CC2)n1CC1CCCCC1 [1/104]	–	–	–	501	6.3/6.8/6.8	6.3/6.8/6.8
Cc1c(C(N)=O)cc(-c2cc(C(C)(C)C)c3c(c2)C2(CCO3)CC2)n1CC1CCCCC1 [1/105]	–	–	–	251	6.6/6.5/6.5	6.6/6.5/6.5
Cc1c(C(=O)NC2COC2)cc(-c2cc(CN3CCOCC3)cc(C(C)(C)C)c2)n1CC1CCCCC1 [1/108]	7940	7.2	7.3	–	–	–
Cc1c(C(=O)NCC(C)(C)O)cc(-c2cc(C(C)N3CCOCC3)cc(C(C)(C)C)c2)n1CC1CCCCC1 (stereo not drawn) [1/109]	12600	< 4.7	< 4.7	–	–	–
Cc1c(C(=O)NCC(C)(C)O)cc(-c2cc(C(=O)N(C)C(C)(C)C)cc(C3(C)CC3)c2)n1CC1CCCCC1 [1/110]	794	7.3	7.4	–	–	–
Cc1c(C(=O)NCC(C)(C)O)cc(-c2cc(C(=O)NC(C)(C)C)cc(C3(C)CC3)c2)n1CC1CCCCC1 [1/111]	–	–	–	398	6.4/7.4/7.4	6.4/7.4/7.4
Cc1c(C(=O)NCC(C)(C)O)cc(-c2cc(C(=O)NC(C)C)cc(C3(C)CC3)c2)n1CC1CCCCC1 [1/112]	501	7.1	7.1	–	–	–
Cc1c(C(=O)NCC(O)(C(F)(F)F)C(F)(F)F)cc(-c2cc(C(C)(C)C)cc(C(C)(C)C)c2)n1CC1CCCCC1 [1/113]	3980	< 4.7	< 4.7	–	–	–
Cc1c(C(=O)NC2COC2)cc(-c2cc(C(C)(C)C)cc(C(C)(C)C)c2)n1CC1CCC(C)CC1 (stereo not drawn) [1/114]	251	6.7	6.8	–	–	–

Compound	IC50 [1, 3] [nM]	pIC50 (FF) [2, 4]	pIC50 (REN) [2, 5]	IC50 [1] [nM]	pIC50 (FF) [2]	pIC50 (REN) [2]
Cc1c(C(=O)NC2COC2)cc(-c2cc(C(C)(C)C)cc(C(C)(C)C)c2)n1CC1CCCCCC1 [1/115]	251	7.3	7.3	–	–	–
Cc1c(C(=O)NC2COC2)cc(-c2cc(C(C)(C)C)cc(C(C)(C)C)c2)n1CCC1CCCC1 [1/116]	126	6.9/6.9/6.9	6.9/6.9/6.9	–	–	–
Cc1c(C(=O)NC2COC2)cc(-c2cc(C(C)(C)C)cc(C(C)(C)C)c2)n1CC1CC2CCC1C2 (stereo not drawn) [1/117]	501	6.8	7.0	–	–	–
Cc1c(C(=O)NC2COC2)cc(-c2cc(C(C)(C)C)cc(C(C)(C)C)c2)n1CC1Cc2ccccc2C1 [1/118]	631	6.5	6.6	–	–	–
Cc1c(C(=O)NC2COC2)cc(-c2cc(C(C)(C)C)cc(C(C)(C)C)c2)n1CC1CCCC(C)C1 (stereo not drawn) [1/119]	–	–	–	200	6.7/7.4/7.3	6.7/7.4/7.3
Cc1c(C(=O)NC2COC2)cc(-c2cc(OCC(C)(C)C)nc(C(C)(C)C)c2)n1CC1CCCCC1 [1/120]	–	–	–	126	6.9/7.1/7.3	6.9/7.1/7.3
Cc1c(C(=O)NC2COC2)cc(-c2cc(OCC(C)C)nc(C(C)(C)C)c2)n1CC1CCCCC1 [1/121]	–	–	–	126	6.9/7.0/7.2	6.9/7.0/7.2
Cc1c(C(=O)NC2COC2)cc(-c2cc(C(C)(C)C)nc(C(C)(C)C)c2)n1CC1CCCCC1 [1/122]	158	7.0	7.0	–	–	–
Cc1c(C(=O)NCC(C)(C)NS(C)(=O)=O)cc(-c2ccc(S(=O)(=O)NC(C)(C)C)c(C(C)(C)C)c2)n1CC1CCCCC1 [1/123]	501	6.8	6.8	–	–	–
Cc1c(C(=O)NCC2(O)CCOCC2)cc(-c2ccc(S(=O)(=O)NC(C)(C)C)c(C(C)(C)C)c2)n1CC1CCCCC1 [1/124]	–	–	–	631	6.2/7.5/7.5	6.2/7.5/7.5
Cc1c(C(=O)NCC(C)(C)C(N)=O)cc(-c2ccc(S(=O)(=O)NC(C)(C)C)c(C(C)(C)C)c2)n1CC1CCCCC1 [1/125]	794	7.4	7.4	–	–	–
Cc1c(C(=O)NCC2COC2)cc(-c2ccc(S(=O)(=O)NC(C)(C)C)c(C(C)(C)C)c2)n1CC1CCCCC1 [1/126]	631	7.1	7.0	–	–	–
Cc1c(C(=O)NCC2(C)COC2)cc(-c2ccc(S(=O)(=O)NC(C)(C)C)c(C(C)(C)C)c2)n1CC1CCCCC1 [1/127]	–	–	–	501	6.3/7.5/7.4	6.3/7.5/7.4
Cc1c(C(=O)NCCCCCO)cc(-c2ccc(S(=O)(=O)NC(C)(C)C)c(C(C)(C)C)c2)n1CC1CCCCC1 [1/128]	501	7.2	7.2	–	–	–
Cc1c(C(=O)NCC(C)(C)C(=O)O)cc(-c2ccc(S(=O)(=O)NC(C)(C)C)c(C(C)(C)C)c2)n1CC1CCCCC1 [1/129]	1580	7.3	7.3	–	–	–
Cc1c(C(=O)NCCS(C)(=O)=O)cc(-c2ccc(S(=O)(=O)NC(C)(C)C)c(C(C)(C)C)c2)n1CC1CCCCC1 [1/130]	794	6.8	6.8	–	–	–
Cc1c(C(=O)NC2CCOCC2)cc(-c2ccc(S(=O)(=O)NC(C)(C)C)c(C(C)(C)C)c2)n1CC1CCCCC1 [1/131]	–	–	–	501	6.3/7.8/7.8	6.3/7.8/7.8
Cc1c(C(=O)NC2COC2)cc(-c2cc(C(F)(F)F)c3c(c2)C2(CCO3)CC2)n1CC1CCCCC1 [1/132]	631	6.8	6.8	–	–	–
Cc1c(C(=O)NC2C[S+]([O-])C2)cc(-c2ccc(S(=O)(=O)NC(C)(C)C)c(C(C)(C)C)c2)n1CC1CCCCC1 (stereo not drawn) [2/1]	–	–	–	794	6.1/6.5/6.5	6.1/6.5/6.5
Cc1c(C(=O)NC2C[S+]([O-])C2)cc(-c2cc(C(C)C)c3c(c2)C(C)(C)N(C(C)C)S3(=O)=O)n1CC1CCCCC1 (stereo not drawn) [2/3]	1580	6.5	6.7	–	–	–
Cc1c(C(=O)NC2COC2)cc(-c2cc(C(=O)N(C)C(C)(C)C)nc(C(C)(C)C)c2)n1CC1CCCCC1 [6/1]	2000	6.7	6.7	–	–	–
